Values of other authors as cited in publication PMC9063988 (JACS Au, 2022).

Tested on: SARS-CoV-2 spike pseudo-lentiviral vector into A549 cells overexpressing ACE2 and TMPRSS2

Structure (SMILES): O=c1c2ccccc2[se]n1-c1ccccc1 [ebselen]
- inhibition of entry of SARS-CoV-2 lentivectors: only at high IC50 with high toxicity
